Laboratory results as given in patent US20250040558A1, “ANTIMICROBIAL ACTIVITY OF CHLORITE-ENTRAINED POLYMERS” (CSP Technologies, Inc., priority 2021, published 2025).

Key:
S. Newport = assay: Reduction of S. Newport on sliced tomatoes; format: cell-based; details: 4° C.
Experimental: The skins of sliced tomatoes were spot inoculated with S. Newport. Sliced tomatoes were sealed in a controlled environment containing ClO2 or a regular plastic seal. The inoculated tomato skins were removed and processed on days 0, 1, 2, 5 and 7, after which S. Newport was evaluated by plating onto XLT-4 agar.
S. Newport was grown in TSB at 37° C. for 18-24 hr. Bacteria was resuspended in E-pure water. Serial dilutions of the inoculum were plated onto XLT-4 plates and incubated at 37° C. for 18-24 hours.
Tomatoes were first prepared by rinsing with 70% ethanol and thoroughly rinsing with sterile e-pure water. Tomatoes were sliced using a sterile tomato slicer (Prince Castle, Inc) and placed in pre-labelled trays. Five tomatoes were sliced per Aptar tray (4×10.3×3.4 inches). The tomatoes were spiked by inoculating two slices of each tomato with 10 μL of S. Newport. Tomatoes were incubated at room temperature for 1 hr. After drying, each tray was heat sealed with a tray sealing instrument (Maxwell Chase Technologies) at a temperature of 390° F. For the experimental group, the film was treated with 0.63 g of chlorine dioxide. Trays were stored at 4° C. until specimen collection. For each treatment of 1 hr, 24 hr, 48 hr, and 5 days, and 7 days a control and a treated tray were evaluated. Tomato skins of spiked slices were collected and tested for the presence of S. Newport. […]

Microsporidia = Microsporidia spore viability on tomato slices (RK-13 culture, Calcofluor White); format: cell-based; details: 4° C.
Experimental: Rabbit kidney (Rk-13) cell lines were maintained in flasks using 3.5% Fetal Bovine Serum (HIFBS) EMEM medium 1× antibiotics and antimycotics. Flasks were incubated at 37° C. and 5% CO2 until preparation of slides. 16-microwell slides were seeded with cells and grown in 10% (HIFBS) EMEM medium for 48 hours before inoculation with spores.
Fresh Microsporidia spores were propagated and harvested using RK-13 tissue cultures. The harvested medium containing cell debris and spores was filtered through a 5 μm filter, centrifuged at 2000 g for 15 minutes and counted using a hemocytometer.
Tomatoes were first prepared by rinsing with 70% ethanol and thoroughly rinsing with sterile e-pure water. Tomatoes were sliced using a sterile tomato slicer (Prince Castle, Inc) and placed in pre-labelled trays. Five tomatoes were sliced per Aptar tray (4×10.3×3.4 inches). The tomatoes were spiked by inoculating two slices of each tomato with 10 microliters of oocysts. Tomatoes were incubated at room temperature for 1 hr. […] For each treatment of 1 hr, 24 hr, 48 hr, and 5 days, and 7 days a control and a treated tray were evaluated. […]
Tomato slices spiked with Microsporidia were suspended in F12 media. […] Spore counts were taken using an epifluorescence microscope at 40× magnification and recorded.

What does the source list for `[O][Cl+][O-]` [chlorine dioxide]?
inactivation of S. Newport (S. Newport; film with 0.63 g chlorine dioxide): effective in inactivation; inactivation of S. Newport (S. Newport; two days of treatment): complete inactivation; Microsporidia spore viability (Microsporidia; 24 hours of treatment): completely inactivated; Microsporidia spore viability (Microsporidia; after one hour of treatment): effectively reduced spore viability
